Columns and labels:
[1] = Maximum concentration value was evaluated for high sustained blood levels in rat after 30 min of administration; type: ADME, organism-based
Rattus norvegicus [2] = species on record: Rattus norvegicus; assay: Compound was tested for area under curve in rat; type: ADME, organism-based; design: concentration or dose not given beside the values; conditions: in vivo
[3] = target: T1, Matrilysin (Homo sapiens) (UniProt P09237); assay: Inhibition of matrix metalloprotease-7 (Matrilysin)
T1 sequence (whole entry): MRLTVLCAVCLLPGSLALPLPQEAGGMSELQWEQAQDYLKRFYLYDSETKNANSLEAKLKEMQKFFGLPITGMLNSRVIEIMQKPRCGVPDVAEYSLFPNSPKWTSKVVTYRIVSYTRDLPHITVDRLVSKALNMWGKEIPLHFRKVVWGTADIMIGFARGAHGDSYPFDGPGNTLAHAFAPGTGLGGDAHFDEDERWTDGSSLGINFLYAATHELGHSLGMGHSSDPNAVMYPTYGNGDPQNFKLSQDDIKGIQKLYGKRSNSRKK

[4] = target: T2, Interstitial collagenase (Homo sapiens) (UniProt P03956); assay: Inhibition of matrix metalloprotease-1 (HFC)
T2 sequence (whole entry): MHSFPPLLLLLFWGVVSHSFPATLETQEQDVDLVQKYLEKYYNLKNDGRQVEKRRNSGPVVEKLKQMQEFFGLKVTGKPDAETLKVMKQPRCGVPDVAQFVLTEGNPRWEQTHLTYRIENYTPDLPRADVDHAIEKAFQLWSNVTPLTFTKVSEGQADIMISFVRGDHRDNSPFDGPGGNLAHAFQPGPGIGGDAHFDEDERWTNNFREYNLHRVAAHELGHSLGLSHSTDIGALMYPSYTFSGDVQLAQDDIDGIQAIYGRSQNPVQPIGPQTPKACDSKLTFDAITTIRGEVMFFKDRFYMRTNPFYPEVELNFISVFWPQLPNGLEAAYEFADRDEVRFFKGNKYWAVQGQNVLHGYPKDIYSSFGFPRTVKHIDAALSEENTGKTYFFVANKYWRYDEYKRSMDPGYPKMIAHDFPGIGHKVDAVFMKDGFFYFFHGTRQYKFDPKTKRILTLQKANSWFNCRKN

[5] = target: Stromelysin-1 (Homo sapiens) (UniProt P08254); assay: Inhibition of matrix metalloprotease-3 (Stromelysin-1)
Stromelysin-1 (Homo sapiens), sequence (P08254 100-477 limits assumed): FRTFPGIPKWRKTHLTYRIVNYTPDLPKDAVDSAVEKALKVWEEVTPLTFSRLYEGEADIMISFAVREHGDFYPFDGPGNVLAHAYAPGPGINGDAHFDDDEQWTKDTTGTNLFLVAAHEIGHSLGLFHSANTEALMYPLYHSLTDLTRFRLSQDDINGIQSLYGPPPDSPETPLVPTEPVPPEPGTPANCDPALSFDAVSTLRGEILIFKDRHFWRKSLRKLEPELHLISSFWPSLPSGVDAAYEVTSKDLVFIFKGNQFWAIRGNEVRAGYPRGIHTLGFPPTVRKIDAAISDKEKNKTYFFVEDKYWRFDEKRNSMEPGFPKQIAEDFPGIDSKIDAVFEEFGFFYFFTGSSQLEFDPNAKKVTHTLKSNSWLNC

[6] = target: 72 kDa type IV collagenase (Homo sapiens) (UniProt P08253); assay: Inhibition of matrix metalloprotease-2 (Gel.A)
72 kDa type IV collagenase (Homo sapiens), sequence (P08253 110-660 limits assumed): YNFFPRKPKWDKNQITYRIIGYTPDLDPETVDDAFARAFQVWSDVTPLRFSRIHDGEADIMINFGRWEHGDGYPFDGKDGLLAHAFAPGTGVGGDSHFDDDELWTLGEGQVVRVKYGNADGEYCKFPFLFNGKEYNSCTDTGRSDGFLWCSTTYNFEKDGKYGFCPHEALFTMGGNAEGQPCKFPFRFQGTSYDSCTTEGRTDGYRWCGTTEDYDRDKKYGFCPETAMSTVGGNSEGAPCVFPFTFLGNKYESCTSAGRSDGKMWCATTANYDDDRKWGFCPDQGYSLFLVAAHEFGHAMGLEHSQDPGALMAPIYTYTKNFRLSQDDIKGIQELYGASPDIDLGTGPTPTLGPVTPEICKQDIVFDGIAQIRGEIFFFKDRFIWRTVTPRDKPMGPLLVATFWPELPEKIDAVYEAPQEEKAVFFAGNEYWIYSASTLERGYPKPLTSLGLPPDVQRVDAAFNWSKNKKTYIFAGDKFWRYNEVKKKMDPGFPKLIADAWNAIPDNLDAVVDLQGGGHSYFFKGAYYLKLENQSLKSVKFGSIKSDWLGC

Rattus norvegicus [7] = assay: Compound was tested for inhibition of Tumor Necrosis Factor production in rat at a peroral dose of 2.5 mg/kg; type: functional; conditions: route oral
Rattus norvegicus [8] = assay: Compound was tested for inhibition of Tumor Necrosis Factor production in rat at a peroral dose of 5 mg/kg; type: functional; conditions: route oral
Rattus norvegicus [9] = assay: Compound was tested for inhibition of Tumor Necrosis Factor production in rat at a peroral dose of 10 mg/kg; type: functional; conditions: route oral
[10] = Maximum concentration value was evaluated for high sustained blood levels in rat after 1 hr of administration; type: ADME, organism-based
[11] = Maximum concentration value was evaluated for high sustained blood levels in rat after 2 hr of administration; type: ADME, organism-based

SMILES | Cmax [1] [ng/mL] | AUC (Rattus norvegicus [2]) [ng·h/mL] | Activity [3] [nM] | Activity [4] [nM] | Activity [5] [nM] | Activity [6] [nM] | inhibition in vivo at 2.5 mg/kg (Rattus norvegicus [7]) [%] | inhibition in vivo at 5 mg/kg (Rattus norvegicus [8]) [%] | inhibition in vivo at 10 mg/kg (Rattus norvegicus [9]) [%] | Cmax [10] [ng/mL] | Cmax [11] [ng/mL]
CNC(=O)[C@@H](NC(=O)[C@H](CC(C)C)[C@@H](C(=O)NO)C(C)C)C(C)(C)C | 376 | 895 | 5 | 1 | 40 | 1 | – | – | – | – | –
CC(C)C[C@@H](C(=O)N[C@H](C(=O)Nc1ccccn1)C(C)(C)C)[C@@H](C(=O)NO)C1CCC(C)CC1 (stereo not given in full) | – | – | 3 | 5 | 20 | 40 | – | – | – | – | –
CNC(=O)[C@@H](NC(=O)[C@H](CC(C)C)[C@@H](C(=O)NO)C1CCC(C)CC1)C(C)(C)C (stereo not given in full) | – | – | 7 | 4 | 40 | 9 | – | – | – | – | –
CNC(=O)[C@@H](NC(=O)[C@H](CC(C)C)[C@@H](C(=O)NO)C1CCN(C)CC1)C(C)(C)C | – | – | 200 | 30 | 500 | 3 | – | – | – | – | –
CNC(=O)[C@@H](NC(=O)[C@H](CC(C)C)[C@@H](C(=O)NO)C1CCSC1)C(C)(C)C (stereo not given in full) | – | – | 4 | 5 | 40 | 5 | – | – | – | – | –
CNC(=O)[C@@H](NC(=O)C(CC(C)C)C(C(=O)NO)C1CC1)C(C)(C)C (single isomer, unassigned) | 106 | 1020 | 200 | 20 | 300 | 100 | – | – | – | – | –
CNC(=O)[C@@H](NC(=O)C(CC(C)C)C(O)C(=O)NO)C(C)(C)C (single isomer, unassigned) | – | – | 20 | 5 | 200 | 6 | 11 | 50 | 69 | – | –
CNC(=O)[C@@H](NC(=O)C(CC(C)C)C(C(=O)NO)C1CCCC1)C(C)(C)C (single isomer, unassigned) | – | 2090 | 20 | 4 | 30 | 3 | 94 | 92 | 98 | 336 | –
CNC(=O)[C@@H](NC(=O)C(CC(C)C)C(C(=O)NO)C1CCCCC1)C(C)(C)C (single isomer, unassigned) | – | 155 | 20 | 4 | 30 | 10 | – | – | – | – | 9.75
CC(C)CC(C(=O)N[C@H](C(=O)Nc1ccccn1)C(C)(C)C)C(C(=O)NO)C1CCCCC1 (single isomer, unassigned) | – | – | – | 4 | 20 | 10 | – | – | – | – | –
CNC(=O)[C@@H](NC(=O)C(CC(C)C)C(C(=O)NO)C1CCC(C(C)(C)C)CC1)C(C)(C)C (single isomer, unassigned) | – | – | 50 | 40 | 100 | 30 | – | – | – | – | –
CNC(=O)[C@@H](NC(=O)C(CC(C)C)C(C(=O)NO)C1CCC1)C(C)(C)C (single isomer, unassigned) | – | – | 20 | 3 | 50 | 2 | – | – | – | – | –
CC(C)CC(C(=O)N[C@H](C(=O)Nc1ccccn1)C(C)(C)C)C(C(=O)NO)C1CCCC1 (single isomer, unassigned; 12j) [listing 1 of 2 here] | – | 899 | – | – | – | – | – | – | – | – | 70.7
CC(C)CC(C(=O)N[C@H](C(=O)Nc1ccccn1)C(C)(C)C)C(C(=O)NO)C1CCCC1 (single isomer, unassigned; 12j) [listing 2 of 2 here] | – | – | 3 | 3 | 20 | 30 | – | – | – | – | –
CC(C)CC(C(=O)N[C@H](C(=O)Nc1ccccn1)C(C)(C)C)C(C(=O)NO)C1CCCC1 (single isomer, unassigned; 12m) | – | – | – | 20 | 50 | 100 | – | – | – | – | –
